In ChEMBL document CHEMBL1201862, “PubChem BioAssay data set” (2004):
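Briefly, cells in 96-well plates were exposed to five compound concentrations for 48 h, and endpoints were estimated by linear interpolation. Abbreviation: GI50, concentration required for 50% inhibition of growth.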 Activity calls are given as the source filed them. No stated cut-off is given here; in the data, active = GI50 up to about 1.1 µM and inactive = higher.

Legend:
Assay in all cases: inhibition of tumour cell growth, NCI panel, 48 h
[1] = tested on: HT-29
[2] = tested on: OVCAR-5
[3] = tested on: NCI/ADR-RES
[4] = tested on: SF-539
[5] = tested on: UACC-257
[6] = tested on: 786-0
[7] = tested on: SNB-75
[8] = tested on: U-251
[9] = tested on: UACC-62
[10] = tested on: OVCAR-4
[11] = tested on: A498
[12] = tested on: NCI-H460
[13] = tested on: HCT-15
[14] = tested on: PC-3
[15] = tested on: OVCAR-3
[16] = tested on: IGROV-1
[17] = tested on: HCT-116
[18] = tested on: RPMI-8226
[19] = tested on: OVCAR-8
[20] = tested on: SR
[21] = tested on: SK-MEL-2
[22] = tested on: COLO 205
[23] = tested on: MDA-N
[24] = tested on: BT-549
[25] = tested on: CCRF-CEM
[26] = tested on: SK-OV-3
[27] = tested on: CAKI-1
[28] = tested on: HOP-92
[29] = tested on: DU-145
[30] = tested on: NCI-H522
[31] = tested on: M14
[32] = tested on: RXF 393
[33] = tested on: SNB-19
[34] = tested on: EKVX
[35] = tested on: MDA-MB-231
[36] = tested on: HCC 2998
[37] = tested on: MCF7
[38] = tested on: NCI-H23
[39] = tested on: KM12
[40] = tested on: SF-295
[41] = tested on: A549
[42] = tested on: UO-31
[43] = tested on: HOP-62
[44] = tested on: K562
[45] = tested on: LOX IMVI
[46] = tested on: SK-MEL-5
[47] = tested on: SW-620
[48] = tested on: SK-MEL-28
[49] = tested on: Malme-3M
[50] = tested on: NCI-H226
[51] = tested on: MOLT-4
[52] = tested on: HL-60
[53] = tested on: SF-268
[54] = tested on: SN12C
[55] = tested on: Hs-578T
[56] = tested on: MDA-MB-435
[57] = tested on: ACHN
[58] = tested on: TK-10
[59] = tested on: T47D

With `COc1cc(C2C3=C(COC3=O)OC(C)(C)Oc3cc4c(cc32)OCO4)cc(OC)c1OC` (centres undefined) the GI50 [1] was 258 nM (active), the GI50 [2] was 3720 nM (inactive) and the GI50 [3] was 299 nM (active). The GI50 [4] was 212 nM (active), the GI50 [5] was 1170 nM (inactive) and the GI50 [6] was 293 nM (active). For the same compound, the GI50 [7] was 253 nM (active), the GI50 [8] was 447 nM (active) and the GI50 [9] was 350 nM (active). For the same compound, the GI50 [10] was 3300 nM (inactive), the GI50 [11] was 281 nM (active) and the GI50 [12] was 365 nM (active). The GI50 [13] was 372 nM, the GI50 [14] was 344 nM (active) and the GI50 [15] was 447 nM (active). For the same compound, the GI50 [16] was 521 nM (active), the GI50 [17] was 318 nM (active) and the GI50 [18] was 444 nM (active). The GI50 [19] was 342 nM (active), the GI50 [20] was 195 nM (active) and the GI50 [21] was 673 nM (active). The GI50 [22] was 236 nM (active), the GI50 [23] was 212 nM (active) and the GI50 [24] was 6670 nM (inactive). The GI50 [25] was 395 nM (active), the GI50 [26] was 476 nM (active) and the GI50 [27] was 2270 nM (inactive). For the same compound, the GI50 [28] was 3580 nM (inactive), the GI50 [29] was 340 nM (active) and the GI50 [30] was 278 nM (active). For the same compound, the GI50 [31] was 281 nM (active), the GI50 [32] was 259 nM (active) and the GI50 [33] was 245 nM (active). For the same compound, the GI50 [34] was 366 nM (active), the GI50 [35] was 358 nM (active) and the GI50 [36] was 535 nM (active). The GI50 [37] was 415 nM (active), the GI50 [38] was 384 nM (active) and the GI50 [39] was 212 nM (active). For the same compound, the GI50 [40] was 222 nM (active), the GI50 [41] was 344 nM (active) and the GI50 [42] was 426 nM (active). The GI50 [43] was 509 nM (active), the GI50 [44] was 353 nM (active) and the GI50 [45] was 331 nM (active). The GI50 [46] was 348 nM (active), the GI50 [47] was 348 nM (active) and the GI50 [48] was 296 nM (active). For the same compound, the GI50 [49] was > 37800 nM (inactive), the GI50 [50] was 885 nM (active) and the GI50 [51] was 453 nM (active). The GI50 [52] was 236 nM (active), the GI50 [53] was 405 nM (active) and the GI50 [54] was 466 nM (active). The GI50 [55] was 301 nM (active), the GI50 [56] was 167 nM (active) and the GI50 [57] was 682 nM (active).
`CN(C)C(=O)O/N=C1/C(=C2/C(=O)Nc3ccccc32)Nc2ccccc21` was tested, and the GI50 [1] was 38800 nM (inactive), the GI50 [2] was 31000 nM (inactive) and the GI50 [3] was 21900 nM (inactive). The GI50 [4] was 9770 nM (inactive), the GI50 [5] was 27200 nM (inactive) and the GI50 [6] was 6980 nM (inactive). The GI50 [7] was 2450 nM (inactive), the GI50 [8] was 11700 nM (inactive) and the GI50 [9] was 16100 nM (inactive). For the same compound, the GI50 [10] was 6810 nM (inactive), the GI50 [11] was 1500 nM (inactive) and the GI50 [12] was 7960 nM (inactive). For the same compound, the GI50 [13] was 19200 nM, the GI50 [15] was 8990 nM (inactive) and the GI50 [16] was 711 nM (active). The GI50 [58] was 17400 nM (inactive), the GI50 [17] was 19100 nM (inactive) and the GI50 [18] was > 100000 nM (inactive). The GI50 [19] was 9750 nM (inactive), the GI50 [59] was 2760 nM (inactive) and the GI50 [20] was 4890 nM (inactive). For the same compound, the GI50 [21] was 8530 nM (inactive), the GI50 [22] was > 100000 nM (inactive) and the GI50 [23] was 46200 nM (inactive). The GI50 [24] was 13400 nM (inactive), the GI50 [25] was > 100000 nM (inactive) and the GI50 [26] was 11800 nM (inactive). The GI50 [27] was 883 nM (active), the GI50 [28] was 6210 nM (inactive) and the GI50 [29] was 8830 nM (inactive). For the same compound, the GI50 [30] was 8750 nM (inactive), the GI50 [31] was 50100 nM (inactive) and the GI50 [32] was 1570 nM (inactive). For the same compound, the GI50 [33] was 10900 nM (inactive), the GI50 [34] was 4830 nM (inactive) and the GI50 [35] was 11600 nM (inactive). For the same compound, the GI50 [36] was 38500 nM (inactive), the GI50 [37] was 17000 nM (inactive) and the GI50 [38] was 28700 nM (inactive). The GI50 [39] was 304 nM (active), the GI50 [40] was 19100 nM (inactive) and the GI50 [41] was 20500 nM (inactive). For the same compound, the GI50 [42] was 21600 nM (inactive), the GI50 [43] was 14100 nM (inactive) and the GI50 [44] was 27700 nM (inactive). For the same compound, the GI50 [45] was 86300 nM (inactive), the GI50 [46] was 24200 nM (inactive) and the GI50 [47] was 53700 nM (inactive). The GI50 [48] was 36500 nM (inactive), the GI50 [49] was 4250 nM (inactive) and the GI50 [51] was 10400 nM (inactive). For the same compound, the GI50 [52] was > 100000 nM (inactive), the GI50 [53] was 6680 nM (inactive) and the GI50 [54] was 22800 nM (inactive). The GI50 [55] was 9350 nM (inactive), the GI50 [56] was 50700 nM (inactive) and the GI50 [57] was 19200 nM (inactive).
